# Reference: the supplement of paper PMC12463676, “Small-molecule dissolution of stress granules by redox modulation benefits ALS models” (Nature Chemical Biology, 2025)
# How the values were obtained:
# potassium arsenate = compound: O=[As]([O-])(O)O.[K+] [potassium arsenate]; assay: thermal stability z-score vs DMSO; higher = more thermally stabilized by treatment; conditions: HeLa; arsenate concentration 1 mM
# Method: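 Cellular thermal proteome profiling in HeLa cells treated with 1 mM arsenate for 1 h (DMSO pretreatment), heated to ten temperatures (37-66.3 °C). Soluble protein was quantified by TMT mass spectrometry relative to DMSO controls; the thermal stability score was transformed to a z-score; mean of n = 3 experiments.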
# lipoamide = compound: NC(=O)CCCCC1CCSS1 [lipoamide]; assay: as above; conditions: HeLa, lipoamide concentration 100 µM
# Method: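 Cellular thermal proteome profiling in HeLa cells. Cells were treated with 100 µM lipoamide for 1 h, with or without 1 mM arsenate for a further 1 h, then heated to ten temperatures (37-66.3 °C), and soluble protein was quantified by TMT mass spectrometry relative to 0.1% DMSO controls. The thermal stability score (sum of log2 fold changes minus the abundance score) was transformed to a z-score; mean of n = 3 experiments.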
# [1] = arsenate co-treatment: 1 mM arsenate 1 h
# 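Further: each temperature applied for 3 min, abundance score taken as mean log2 fold change at the two lowest temperatures, z-score obtained by mean subtraction and division by SD.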
# UniProt Q13257, sequence (Q13257 whole entry): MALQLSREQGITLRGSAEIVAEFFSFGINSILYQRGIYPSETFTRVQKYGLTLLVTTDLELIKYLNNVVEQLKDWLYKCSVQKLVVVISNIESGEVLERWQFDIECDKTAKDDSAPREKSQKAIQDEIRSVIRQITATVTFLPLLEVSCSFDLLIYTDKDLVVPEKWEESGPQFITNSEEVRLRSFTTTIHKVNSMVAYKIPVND
# UniProt Q5W0B1, sequence (Q5W0B1 whole entry): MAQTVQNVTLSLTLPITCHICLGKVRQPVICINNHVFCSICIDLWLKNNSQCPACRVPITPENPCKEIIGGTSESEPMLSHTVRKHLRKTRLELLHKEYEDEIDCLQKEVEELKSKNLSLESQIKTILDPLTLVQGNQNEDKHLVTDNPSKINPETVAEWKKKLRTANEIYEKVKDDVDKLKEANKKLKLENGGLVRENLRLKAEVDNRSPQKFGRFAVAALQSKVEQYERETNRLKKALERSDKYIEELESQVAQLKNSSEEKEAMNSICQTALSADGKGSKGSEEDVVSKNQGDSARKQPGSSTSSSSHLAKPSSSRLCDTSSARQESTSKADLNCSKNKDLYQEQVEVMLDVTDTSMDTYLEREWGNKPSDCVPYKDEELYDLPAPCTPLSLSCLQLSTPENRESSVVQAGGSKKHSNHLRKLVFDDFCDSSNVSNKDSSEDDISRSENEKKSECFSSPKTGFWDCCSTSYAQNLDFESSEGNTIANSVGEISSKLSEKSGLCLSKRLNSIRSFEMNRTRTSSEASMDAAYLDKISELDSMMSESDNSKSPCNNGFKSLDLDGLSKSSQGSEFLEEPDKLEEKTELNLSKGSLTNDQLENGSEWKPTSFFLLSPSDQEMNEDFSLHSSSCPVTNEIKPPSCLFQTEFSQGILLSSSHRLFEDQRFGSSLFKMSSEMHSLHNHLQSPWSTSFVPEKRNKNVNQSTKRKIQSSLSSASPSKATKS
# UniProt Q96HW7, sequence (Q96HW7 whole entry): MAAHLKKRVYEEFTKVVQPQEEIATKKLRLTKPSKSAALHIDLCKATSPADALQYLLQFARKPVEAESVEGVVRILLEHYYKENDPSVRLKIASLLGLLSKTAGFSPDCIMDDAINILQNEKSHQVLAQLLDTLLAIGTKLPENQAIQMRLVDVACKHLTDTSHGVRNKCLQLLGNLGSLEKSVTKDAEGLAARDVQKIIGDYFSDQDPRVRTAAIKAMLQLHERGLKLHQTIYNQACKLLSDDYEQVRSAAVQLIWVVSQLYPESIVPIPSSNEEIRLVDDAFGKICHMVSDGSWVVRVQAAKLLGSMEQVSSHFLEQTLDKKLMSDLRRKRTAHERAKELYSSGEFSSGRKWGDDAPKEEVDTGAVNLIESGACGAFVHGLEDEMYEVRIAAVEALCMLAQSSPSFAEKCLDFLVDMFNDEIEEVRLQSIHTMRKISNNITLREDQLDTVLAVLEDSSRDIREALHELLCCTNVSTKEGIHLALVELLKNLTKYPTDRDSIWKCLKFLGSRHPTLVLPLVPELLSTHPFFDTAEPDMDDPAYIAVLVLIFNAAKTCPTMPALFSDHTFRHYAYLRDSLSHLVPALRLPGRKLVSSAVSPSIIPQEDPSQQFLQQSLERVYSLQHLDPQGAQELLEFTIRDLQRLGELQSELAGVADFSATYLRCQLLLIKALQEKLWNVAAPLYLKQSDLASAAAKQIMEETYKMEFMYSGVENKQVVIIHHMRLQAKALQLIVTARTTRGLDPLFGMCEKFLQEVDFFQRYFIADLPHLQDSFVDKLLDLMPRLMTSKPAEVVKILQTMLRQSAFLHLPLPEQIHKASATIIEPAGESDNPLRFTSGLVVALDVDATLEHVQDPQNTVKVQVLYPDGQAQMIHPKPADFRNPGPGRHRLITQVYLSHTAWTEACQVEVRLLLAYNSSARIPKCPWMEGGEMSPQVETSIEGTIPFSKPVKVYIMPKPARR
# UniProt O95684, sequence (O95684 whole entry): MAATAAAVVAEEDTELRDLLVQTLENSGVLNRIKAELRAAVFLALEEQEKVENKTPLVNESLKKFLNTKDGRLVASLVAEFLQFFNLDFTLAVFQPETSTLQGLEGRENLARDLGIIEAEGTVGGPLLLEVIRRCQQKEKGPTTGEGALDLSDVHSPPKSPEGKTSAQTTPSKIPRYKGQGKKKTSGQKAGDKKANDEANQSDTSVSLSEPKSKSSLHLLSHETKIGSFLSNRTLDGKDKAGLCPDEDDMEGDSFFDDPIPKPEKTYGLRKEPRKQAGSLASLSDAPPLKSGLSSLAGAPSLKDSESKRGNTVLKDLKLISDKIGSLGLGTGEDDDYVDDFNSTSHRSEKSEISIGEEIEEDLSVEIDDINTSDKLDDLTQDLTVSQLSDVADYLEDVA
# UniProt Q9NPD8, sequence (Q9NPD8 whole entry): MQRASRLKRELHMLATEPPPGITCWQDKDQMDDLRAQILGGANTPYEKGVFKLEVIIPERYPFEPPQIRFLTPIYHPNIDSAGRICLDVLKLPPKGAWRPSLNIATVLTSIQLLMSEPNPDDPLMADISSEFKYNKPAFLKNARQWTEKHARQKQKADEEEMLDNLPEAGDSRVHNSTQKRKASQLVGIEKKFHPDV
# UniProt Q9BVV6, sequence (Q9BVV6 whole entry): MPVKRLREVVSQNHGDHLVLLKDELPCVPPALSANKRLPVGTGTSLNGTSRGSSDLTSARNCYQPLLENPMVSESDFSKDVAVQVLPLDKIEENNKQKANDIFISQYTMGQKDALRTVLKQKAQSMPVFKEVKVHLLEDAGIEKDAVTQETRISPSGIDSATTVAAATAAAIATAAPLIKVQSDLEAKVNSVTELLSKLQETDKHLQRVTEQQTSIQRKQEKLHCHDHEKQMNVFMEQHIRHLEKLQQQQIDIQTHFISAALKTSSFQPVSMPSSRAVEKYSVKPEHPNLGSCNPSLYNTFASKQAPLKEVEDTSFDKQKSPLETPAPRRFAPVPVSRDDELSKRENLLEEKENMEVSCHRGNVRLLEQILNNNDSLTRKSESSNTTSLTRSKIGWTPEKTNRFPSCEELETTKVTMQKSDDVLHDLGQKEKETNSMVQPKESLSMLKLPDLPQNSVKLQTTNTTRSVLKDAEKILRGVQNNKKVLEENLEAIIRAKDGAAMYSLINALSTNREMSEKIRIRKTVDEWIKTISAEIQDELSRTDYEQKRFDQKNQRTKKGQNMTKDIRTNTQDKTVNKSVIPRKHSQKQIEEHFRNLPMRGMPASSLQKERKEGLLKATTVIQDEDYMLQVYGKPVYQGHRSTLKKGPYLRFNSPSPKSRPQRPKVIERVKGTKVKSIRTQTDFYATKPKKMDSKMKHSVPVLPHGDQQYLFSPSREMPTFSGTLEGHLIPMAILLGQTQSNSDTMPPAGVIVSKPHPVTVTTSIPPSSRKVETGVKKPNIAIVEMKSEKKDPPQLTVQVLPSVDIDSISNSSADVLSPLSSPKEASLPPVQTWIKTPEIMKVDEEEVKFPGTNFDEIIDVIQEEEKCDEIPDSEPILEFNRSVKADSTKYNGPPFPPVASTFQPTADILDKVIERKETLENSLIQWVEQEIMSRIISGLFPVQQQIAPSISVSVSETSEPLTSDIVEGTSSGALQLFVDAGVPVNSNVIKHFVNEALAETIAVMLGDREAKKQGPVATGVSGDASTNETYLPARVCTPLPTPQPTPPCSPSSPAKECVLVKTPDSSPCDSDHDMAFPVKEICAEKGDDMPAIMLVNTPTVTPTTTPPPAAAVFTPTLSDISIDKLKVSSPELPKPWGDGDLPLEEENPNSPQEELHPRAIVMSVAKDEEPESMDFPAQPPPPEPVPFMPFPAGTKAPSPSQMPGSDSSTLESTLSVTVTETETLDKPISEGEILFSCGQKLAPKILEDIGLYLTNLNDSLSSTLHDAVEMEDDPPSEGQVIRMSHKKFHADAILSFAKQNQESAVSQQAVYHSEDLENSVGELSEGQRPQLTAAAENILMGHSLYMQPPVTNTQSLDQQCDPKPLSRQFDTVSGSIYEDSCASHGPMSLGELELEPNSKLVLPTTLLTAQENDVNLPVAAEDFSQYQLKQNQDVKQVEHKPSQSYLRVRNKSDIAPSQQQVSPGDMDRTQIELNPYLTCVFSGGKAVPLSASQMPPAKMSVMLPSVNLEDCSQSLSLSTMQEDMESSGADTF
# UniProt P46937, sequence (P46937 whole entry): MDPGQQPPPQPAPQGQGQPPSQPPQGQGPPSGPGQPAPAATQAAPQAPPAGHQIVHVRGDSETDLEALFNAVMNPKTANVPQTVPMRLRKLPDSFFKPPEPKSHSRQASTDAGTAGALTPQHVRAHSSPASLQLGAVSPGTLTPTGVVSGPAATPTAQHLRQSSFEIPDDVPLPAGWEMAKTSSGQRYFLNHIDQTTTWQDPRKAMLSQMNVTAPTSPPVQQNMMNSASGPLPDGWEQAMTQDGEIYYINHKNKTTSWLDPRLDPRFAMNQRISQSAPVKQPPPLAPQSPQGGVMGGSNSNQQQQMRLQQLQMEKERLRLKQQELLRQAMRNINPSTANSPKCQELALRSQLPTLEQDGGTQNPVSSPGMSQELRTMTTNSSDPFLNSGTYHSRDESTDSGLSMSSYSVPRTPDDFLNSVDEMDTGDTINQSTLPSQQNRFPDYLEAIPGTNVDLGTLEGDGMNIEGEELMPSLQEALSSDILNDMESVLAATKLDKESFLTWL
# UniProt P25325, sequence (P25325 whole entry): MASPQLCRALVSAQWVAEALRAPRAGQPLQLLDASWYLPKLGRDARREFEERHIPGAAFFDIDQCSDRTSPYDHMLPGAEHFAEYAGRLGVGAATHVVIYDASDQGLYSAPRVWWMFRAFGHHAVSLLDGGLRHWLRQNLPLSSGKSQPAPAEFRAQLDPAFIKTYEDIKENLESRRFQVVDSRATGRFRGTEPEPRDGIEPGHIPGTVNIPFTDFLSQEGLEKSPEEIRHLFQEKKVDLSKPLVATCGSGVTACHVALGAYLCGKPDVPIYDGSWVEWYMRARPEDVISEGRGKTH
# UniProt Q9Y5R8, sequence (Q9Y5R8 whole entry): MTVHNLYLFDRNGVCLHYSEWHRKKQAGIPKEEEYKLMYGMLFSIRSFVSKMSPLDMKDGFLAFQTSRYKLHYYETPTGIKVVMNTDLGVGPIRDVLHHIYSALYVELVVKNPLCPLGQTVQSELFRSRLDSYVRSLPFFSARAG
Target,thermal stability z-score (potassium arsenate),thermal stability z-score (lipoamide; [1]),thermal stability z-score (lipoamide; arsenate co-treatment: none)
MVK (UniProt Q03426),-0.675,-0.352,-0.323
POGZ (UniProt Q7Z3K3),-0.422,-0.198,0.0592
FARP2 (UniProt O94887),-0.235,-0.32,-0.266
PLOD2 (UniProt O00469),0.877,-3.92,-3.35
RDH14 (UniProt Q9HBH5),1.53,1.25,0.852
FAM73A (UniProt Q8NAN2),0.164,-0.106,0.0979
INTS4 (UniProt Q96HW7),-0.0059,1.08,1.34
PPP1R18 (UniProt Q6NYC8),0.444,-0.336,0.0646
CCT4 (UniProt P50991),-0.223,-0.0959,-0.205
MTCH2 (UniProt Q9Y6C9),0.688,-0.0451,0.12
CHD1 (UniProt O14646),-0.504,-0.0735,0.209
YAP1 (UniProt P46937),0.0991,0.509,0.727
HDGF (UniProt P51858),0.19,0.026,0.439
NBEAL1 (UniProt Q6ZS30),-0.119,0.108,-0.0292
NPTN (UniProt Q9Y639),0.798,0.275,-0.0241
ZNF24 (UniProt P17028),-0.114,0.0764,-0.217
TMED2 (UniProt Q15363),0.624,-0.867,-1.06
TCP1 (UniProt P17987),-0.229,-0.0358,-0.0779
SRA1 (UniProt Q9HD15),0.51,0.911,0.998
ACYP1 (UniProt P07311),-0.451,-0.11,-0.304
RPL3 (UniProt P39023),-0.75,0.408,-0.0552
PREP (UniProt P48147),0.347,-0.299,-0.268
MRPL41 (UniProt Q8IXM3),0.448,-0.202,0.303
TNS3 (UniProt Q68CZ2),1.32,0.341,0.204
CDV3 (UniProt Q9UKY7),0.683,0.669,0.83
MAD2L1 (UniProt Q13257),1.96,-0.109,-0.147
PSMB5 (UniProt P28074),0.113,0.395,0.222
ARL1 (UniProt P40616),0.669,-0.148,-0.943

Target,thermal stability z-score (potassium arsenate),thermal stability z-score (lipoamide; [1]),thermal stability z-score (lipoamide; arsenate co-treatment: none)
LRRC41 (UniProt Q15345),-0.546,-0.134,-0.26
NUDT12 (UniProt Q9BQG2),0.253,0.0414,0.0448
POP1 (UniProt Q99575),-0.401,-0.557,-0.523
MPST (UniProt P25325),-0.099,0.689,0.913
MEF2D (UniProt Q14814),0.288,0.00357,0.197
UBE2T (UniProt Q9NPD8),-0.137,0.245,0.447
APBB2 (UniProt Q92870),0.0987,0.078,-0.11
GALK1 (UniProt P51570),-0.534,-0.559,-0.412
ECI1 (UniProt P42126),0.59,0.859,0.555
RNF219 (UniProt Q5W0B1),0.0297,-0.038,-0.0978
MRPL13 (UniProt Q9BYD1),-0.201,-0.175,-0.451
SYNJ1 (UniProt O43426),-0.277,0.305,-0.14
CEP97 (UniProt Q8IW35),-0.411,-0.477,0.495
TRAPPC1 (UniProt Q9Y5R8),0.484,0.425,0.512
PAK1 (UniProt Q13153),0.771,0.413,0.286
DNPEP (UniProt Q9ULA0),0.248,-0.183,0.0127
PGLS (UniProt O95336),-1.3,0.924,-0.683
ELP4 (UniProt Q96EB1),0.742,-0.492,0.609
KIAA0586 (UniProt Q9BVV6),-0.133,0.234,0.264
NCL (UniProt P19338),-0.611,0.724,0.77
FAM129B (UniProt Q96TA1),-1.01,0.659,0.517
PPP2R5C (UniProt Q13362),-0.0211,1.38,0.649
DSCC1 (UniProt Q9BVC3),-0.199,0.0551,0.0324
HACD1 (UniProt B0YJ81),-0.388,-0.754,-1.15
FGFR1OP (UniProt O95684),1.33,0.163,-0.0584
CLCN7 (UniProt P51798),0.0852,-0.792,-0.489
AURKA (UniProt O14965),-0.391,-0.091,-0.269
